This passage reports IC50 results from patent US9340577B2, “HLA binding motifs and peptides and their uses” (priority 1992, dated 2016).

As usually defined, the IC50 is the concentration that inhibits the measured activity by half. The low end stands for greater potency in that assay, the high end for weaker potency in that assay.

No end group written: not given here.

Among the targets are A*2902 (Homo sapiens, UniProt P04439, A270S/D101N/D185E/E176V/E277Q/E87Q/F33T/G231S/H175R/I121M/I218V/I322F/K168Q/L300P/L318F/M331R/P208A/P217A/Q86L/T323A/T345S/V100A/V358M); HLA-A1 (A*0101) (Homo sapiens, UniProt P04439, A114D/A174V/A182V/D101N/D185E/E176A/E190D/L180R/Q94H/R68K/S129P/T187R/V100A/V91M/W191G); A*3002 (Homo sapiens, UniProt P04439, D101N/D140H/D185E/E176R/F33S/G80R/H175R/K168Q/Q94H/R138E/R41S/V100E); A*2601 (Homo sapiens, UniProt P04439, A114D/A173T/A270S/D101N/D185E/E277Q/E87N/F33Y/G231S/I121R/I218V/K168Q/L180W/L300P/L318F/P208A/P217A/Q86R/Q94H/R138Q/S129P/T187R/T323A/T345S/V100A/V358M).

Assay in all cases: biochemical
Format in all cases: binding

Sequence of A*3002 (P04439 whole entry, looked up, the tested form may be a part, stated change not applied): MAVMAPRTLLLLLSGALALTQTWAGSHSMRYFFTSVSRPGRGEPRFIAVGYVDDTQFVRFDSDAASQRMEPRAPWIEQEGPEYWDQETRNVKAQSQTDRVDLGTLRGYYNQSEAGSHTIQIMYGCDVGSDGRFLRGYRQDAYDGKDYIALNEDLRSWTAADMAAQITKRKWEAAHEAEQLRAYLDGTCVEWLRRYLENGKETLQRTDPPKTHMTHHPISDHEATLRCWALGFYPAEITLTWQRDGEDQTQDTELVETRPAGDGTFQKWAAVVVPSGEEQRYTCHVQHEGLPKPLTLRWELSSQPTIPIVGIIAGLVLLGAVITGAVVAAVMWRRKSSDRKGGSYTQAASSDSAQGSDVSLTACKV

Consider FGEMVQWAY [Peptide 1580.13], for which the IC50 against A*2902 is 81 nM; at HLA-A1 (A*0101), 318 nM; against A*3002 it was 249 nM; at A*2601, > 20000 nM.

For the compound VSIEWRQRRY [Peptide 9015.0182], the IC50 came out at 13900 nM at A*2902, 7930 nM against HLA-A1 (A*0101), 65 nM against A*3002 and 1990 nM on A*2601.

Consider NTPPLVKLWY [Peptide 9015.0170], for which the IC50 on A*2902 is 2650 nM; against HLA-A1 (A*0101), 18400 nM; against A*3002 it was 9350 nM; at A*2601, 199 nM.

Regarding TWETWWTDY [Peptide 9015.0019], the IC50 was 137 nM against A*2902, > 20000 nM at HLA-A1 (A*0101), 6310 nM at A*3002 and 3300 nM on A*2601.

For the compound VSIEWRLRRY [Peptide 9015.0181], the IC50 against A*2902 was determined as 2490 nM; on HLA-A1 (A*0101), 4630 nM; against A*3002, 55 nM; against A*2601, 363 nM.

With KSLVKHHMY [Peptide 9015.0034], the IC50 on A*2902 was 2790 nM; against HLA-A1 (A*0101) it was 10500 nM; on A*3002, 7.7 nM; at A*2601 it was > 20000 nM.

As to LYDQLIHLY [Peptide 9018.0028], the IC50 at A*2902 came out at 249 nM; against HLA-A1 (A*0101), 177 nM; on A*3002 it was 21 nM; against A*2601, 69 nM.

Consider YTDGPGVRY [Peptide 9018.0003], for which the IC50 at A*2902 came to 39 nM; against HLA-A1 (A*0101), 2.1 nM; at A*3002, 45 nM; at A*2601 it was 152 nM.

For NSLVKHHMY [Peptide 9015.0033], the IC50 on A*2902 is 326 nM; on HLA-A1 (A*0101), 2030 nM; against A*3002, 451 nM; at A*2601, > 20000 nM.

Consider `CC[C@H](C)[C@H](NC(=O)[C@H](CO)NC(=O)[C@@H](NC(=O)[C@@H]1CCCN1C(=O)[C@H](CO)NC(=O)[C@H](Cc1ccc(O)cc1)NC(=O)[C@H](CCSC)NC(=O)[C@@H](N)CCCNC(=N)N)C(C)C)C(=O)N[C@@H](CC(C)C)C(=O)O` [Peptide 1605.07], for which the IC50 against A*2902 was > 20000 nM; at HLA-A1 (A*0101), > 20000 nM; against A*3002, 44 nM; at A*2601 it was > 20000 nM.

With STEWRLRRY [Peptide 9018.0019], the IC50 was found to be 271 nM against A*2902, 52 nM at HLA-A1 (A*0101), 6.6 nM against A*3002 and 320 nM against A*2601.

On to NSDVKHHMY [Peptide 9018.0010], for which the IC50 came to 193 nM on A*2902, 3.2 nM against HLA-A1 (A*0101), 70 nM against A*3002 and 8990 nM on A*2601.

Take DLDDQLIHLY [Peptide 9018.0022]: the IC50 was found to be 3.7 nM against A*2902, 4.9 nM against HLA-A1 (A*0101), 2.7 nM at A*3002 and 38 nM on A*2601.

As for VSRRAKGWFY [Peptide 9015.0178], the IC50 against A*2902 was 11900 nM; at HLA-A1 (A*0101), 273 nM; against A*3002, 40 nM; against A*2601 it was > 20000 nM.

Take LSEMIQWAY [Peptide 1580.17]: the IC50 against A*2902 was 187 nM; against HLA-A1 (A*0101), 1.5 nM; against A*3002, 77 nM; at A*2601, > 20000 nM.

As for YTDGPGTRY [Peptide 9018.0002], the concentration for half-maximal inhibition (IC50) at A*2902 came out at 65 nM; at HLA-A1 (A*0101), 0.39 nM; against A*3002 it was 63 nM; against A*2601, 28 nM.

With ETWETWWTDY [Peptide 9015.0169], the IC50 turned out to be 11800 nM against A*2902, 955 nM against HLA-A1 (A*0101), 8650 nM against A*3002 and 2.3 nM on A*2601.

In the case of STDAALYWY [Peptide 1593.02], the IC50 at A*2902 was 26 nM; at HLA-A1 (A*0101), 2.6 nM; against A*3002, 68 nM; against A*2601 it was 24 nM.

Regarding ETKKGKAGY [Peptide 9015.0024], the IC50 on A*2902 is > 20000 nM; on HLA-A1 (A*0101), > 20000 nM; against A*3002 it was 2100 nM; against A*2601 it was 15 nM.

As for SIEWRLRRY [Peptide 9015.0035], the IC50 was 13100 nM against A*2902, 5230 nM at HLA-A1 (A*0101), 265 nM against A*3002 and 164 nM against A*2601.

As to QTRVLAIERY [Peptide 9015.0156], the IC50 at A*2902 is 4180 nM; against HLA-A1 (A*0101), 6420 nM; against A*3002, 67 nM; against A*2601, 3310 nM.

On to HMDREKHPEY [Peptide 9018.0007], for which the IC50 was > 20000 nM at A*2902, 24 nM at HLA-A1 (A*0101), 648 nM against A*3002 and 2760 nM against A*2601.

In the case of EISNYTDTIY [Peptide 9015.0157], the IC50 at A*2902 was > 20000 nM; against HLA-A1 (A*0101), 2340 nM; on A*3002, 7050 nM; on A*2601, 32 nM.

On to LSDMVQWAY [Peptide 1593.03], for which the IC50 against A*2902 is 504 nM; against HLA-A1 (A*0101), 21 nM; against A*3002, 161 nM; against A*2601 it was 8060 nM.

For ETPGIRYQY [Peptide 9015.0017], the IC50 against A*2902 was > 20000 nM; at HLA-A1 (A*0101) it was 9210 nM; against A*3002, 2300 nM; on A*2601, 25 nM.

Take LADQLIHLY [Peptide 9015.0038]: the IC50 was found to be 1330 nM against A*2902, 4 nM against HLA-A1 (A*0101), 96 nM against A*3002 and 6090 nM against A*2601.

In the case of EISNYTDIIY [Peptide 9015.0158], the IC50 against A*2902 was > 20000 nM; against HLA-A1 (A*0101), 6020 nM; at A*3002, 2900 nM; against A*2601 it was 59 nM.

Take MRDNWRSELY [Peptide 9015.0155]: the IC50 is 6800 nM against A*2902, > 20000 nM at HLA-A1 (A*0101), 73 nM against A*3002 and > 20000 nM on A*2601.

As to RYSTQVDPGY [Peptide 9018.0039], the IC50 at A*2902 is > 20000 nM; at HLA-A1 (A*0101) it was 12200 nM; against A*3002 it was 40 nM; on A*2601, > 20000 nM.

Take DTADQLIHLY [Peptide 9018.0021]: the 50% inhibitory concentration (IC50) worked out at 30 nM against A*2902, 3.6 nM at HLA-A1 (A*0101), 13 nM at A*3002 and 3.2 nM against A*2601.

For the compound SSDAALYWY [Peptide 1593.08], the IC50 is 1970 nM at A*2902, 34 nM at HLA-A1 (A*0101), 799 nM at A*3002 and > 20000 nM at A*2601.

For the compound KYCWNLLQY [Peptide 1595.08], the IC50 at A*2902 was 235 nM; at HLA-A1 (A*0101), > 20000 nM; on A*3002, 47 nM; at A*2601, > 20000 nM.

Turning to HYARELHPEY [Peptide 9018.0035], the IC50 against A*2902 was 928 nM; against HLA-A1 (A*0101) it was > 20000 nM; against A*3002, 104 nM; against A*2601, > 20000 nM.

For the compound RFALNPGLL [Peptide 1605.01], the IC50 against A*2902 was > 20000 nM; against HLA-A1 (A*0101), > 20000 nM; at A*3002, 98 nM; on A*2601, > 20000 nM.

Take VSDEWRLRRY [Peptide 9018.0016]: the IC50 stood at 2580 nM against A*2902, 62 nM against HLA-A1 (A*0101), 47 nM at A*3002 and 4320 nM at A*2601.

Regarding ITDDSDIAY [Peptide 1580.14], the IC50 turned out to be 2100 nM on A*2902, 4.2 nM on HLA-A1 (A*0101), 3150 nM against A*3002 and 7470 nM against A*2601.

With GTDCNGWFY [Peptide 1593.01], the IC50 was 73 nM against A*2902, 40 nM against HLA-A1 (A*0101), 330 nM against A*3002 and 318 nM at A*2601.

For the compound ITDDSEIAY [Peptide 1593.04], the IC50 is 1440 nM against A*2902, 20 nM against HLA-A1 (A*0101), 3100 nM against A*3002 and 7370 nM against A*2601.

Take SIDWRLRRY [Peptide 9018.0020]: the IC50 against A*2902 came out at 3310 nM; on HLA-A1 (A*0101), 986 nM; at A*3002, 27 nM; against A*2601, 624 nM.

As to VSRDAKGWFY [Peptide 9018.0014], the IC50 amounted to 17 nM at A*2902, 14 nM on HLA-A1 (A*0101), 3.4 nM at A*3002 and 64 nM against A*2601.

As to LYDQLIHMYY [Peptide 9018.0031], the IC50 on A*2902 was 131 nM; on HLA-A1 (A*0101) it was 191 nM; on A*3002, 38 nM; against A*2601, 4370 nM.

In the case of MSMSQWIKY [Peptide 1580.05], the IC50 on A*2902 was 7.7 nM; on HLA-A1 (A*0101), 229 nM; on A*3002, 1.8 nM; against A*2601 it was 158 nM.

For LTDQLIHLY [Peptide 9018.0026], the IC50 was 178 nM at A*2902, 0.53 nM on HLA-A1 (A*0101), 2.6 nM against A*3002 and 432 nM on A*2601.

As to VWDIVYIEY [Peptide 9018.0040], the half-maximal inhibitory concentration (IC50) against A*2902 is 540 nM; against HLA-A1 (A*0101) it was 91 nM; against A*3002 it was 472 nM; at A*2601 it was 336 nM.

Turning to GYADQLIHLY [Peptide 9018.0025], the IC50 was 42 nM at A*2902, 109 nM at HLA-A1 (A*0101), 1.2 nM at A*3002 and 4400 nM on A*2601.

For CQDKILEHY [Peptide 1580.23], the IC50 is > 20000 nM against A*2902, 55 nM against HLA-A1 (A*0101), 2600 nM against A*3002 and > 20000 nM at A*2601.
